This passage reports TGI results from PubChem BioAssay (NCI).

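Test compounds were applied to cells in 96-well plates for 48 hours at 5 doses. The concentration for full growth arrest is given as TGI.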

Common to all, as to experiment: NCI tumour cell line growth inhibition, 48 h
The test system of test [1] is SF-539 CNS.
For test [2], the system named is SW-620 colon.
In test [3] the test system is KM20L2 colon.
In test [4] the test system is LXFL 529 NSCLC.
Test [5] deals with DMS 273 small cell lung.
Test [6] deals with XF 498 CNS.
In test [7] the test system is RXF-631 renal.
The subject of test [8] is DLD-1 colon.
For test [9], the system named is SNB-78 CNS.
Test [10] has as its system HOP-18 NSCLC.
Test [11] relates to NCI-H226 lung.
For test [12], the system named is DMS 114 small cell lung.
Test [13] relates to M19-MEL melanoma.

For the compound `CCOCN1COCN=C1NC#N`, the TGI is above 100 µM in [1]; 35.3 µM in test [2]; above 100 µM in [3]; above 100 µM in [4]; above 100 µM in [5]; above 100 µM in [6]. The TGI in [7], in test [8], in test [9], in test [10], in test [11] and in [12] was above 100 µM in each case.
On to `Cc1ccccc1C1OC(=O)c2ccccc21` (stereo not given), for which the TGI in test [1], in test [2], in [3], in [4], in test [5] and in test [13] was above 100 µM each time. Moreover, the TGI in test [7], in [8], in [9], in test [10], in [11] and in test [12] was above 100 µM in each case.
Consider `COc1ccc(/C(Cl)=C(/c2ccc(O)cc2)c2ccc(OCCN(C)C)cc2)cc1`, for which the TGI is 23.8 µM in [1]; 24.2 µM in test [2]; 11.7 µM in test [3]; 22.6 µM in test [4]; 23.6 µM in test [5]; 10.3 µM in test [6]. The TGI in [13] came out at 18.9 µM; in test [7], 36.7 µM; in [8], 31 µM; in test [9], 29.3 µM; in test [10] it was 25 µM; in test [11], 34.4 µM. Moreover, in test [12], the TGI was found to be 19.3 µM.
In the case of `CCCCCCCc1cc(OC(=O)c2c(C)cc(OC)cc2O)cc(O)c1C(=O)O`, the TGI in test [1] came to 32.6 µM; in [2], 64.5 µM; in test [3] it was 40.3 µM; in test [4], 34 µM; in test [5], 87.9 µM; in test [13], 50.7 µM. Moreover, the TGI in test [7] was 63.9 µM; in [8], 34.7 µM; in [9], above 100 µM.
With `C#CCNC(=O)NCCCC(NC(C)=O)C(=O)NCc1ccccc1` (stereo not given), the TGI in test [1], in [2], in test [3], in test [4], in test [13] and in [7] was above 100 µM throughout. The TGI in test [8], in [9], in [10], in test [11] and in [12] was above 100 µM throughout.
Turning to `Nc1ccc2nc(NCc3ccc(F)cc3)cnc2c1`, the TGI in test [1], in test [2], in [3], in test [4], in [5] and in test [6] was above 100 µM throughout. In addition, the TGI in [9], in test [11] and in test [12] was above 100 µM each time.
`N#CCCN(c1ccc(/C=C2\N=C(Cc3ccccc3)OC2=O)cc1)S(=O)(=O)c1ccccc1`: the TGI in test [1], in [2], in test [3], in [4], in test [5] and in test [6] was above 100 µM throughout. The TGI in test [8], in test [9], in test [11] and in test [12] was above 100 µM each time.
Consider `CN(C)CCC(O)(c1ccccc1)C(O)(CCN(C)C)c1ccccc1` (stereo not given), for which the TGI in test [2], in test [3], in test [4], in test [6], in test [13] and in test [8] was above 100 µM in each case. The TGI in test [9] and in test [12] was above 100 µM throughout.
On to `CCOc1ccc(NC(=O)C(=O)NO)cc1`, for which the TGI in test [1], in test [2], in [3], in [4], in [5] and in test [13] was above 100 µM throughout. The TGI in test [8], in test [9], in [10], in test [11] and in test [12] was above 100 µM throughout.
In the case of `C1=Nc2ccc(cc2)N=Cc2ccc(cc2)OCc2cccc(n2)COc2ccc1cc2`, the TGI in [1], in test [2] and in test [11] was above 100 µM in each case.
As to `O=C1CS(=O)(=O)C(c2cccc(Oc3ccccc3)c2)N1c1cccc(Cl)c1` (stereo not given), the TGI in [1] was 37.4 µM; in [2], above 100 µM; in test [11] it was above 100 µM.
With `CC(C)c1nc2cc(C(F)(F)F)ccc2[nH]c1=O`, the TGI in test [1], in test [2] and in test [11] was above 100 µM in each case.
Take `CC(C)(C)OC(=O)CC(NC(=O)OC(C)(C)C)C(=O)N[C@@H]1CCCC[C@H]1C(=O)OCc1ccccc1` (stereo not given in full): the TGI in [1] was 64 µM; in test [2], above 100 µM; in [11], 60.3 µM.
Regarding `N#CC(c1ccnc(Cl)n1)c1nc2ccccc2s1` (stereo not given), the TGI was 15.1 µM in test [1], above 70.7 µM in test [2] and above 47.4 µM in [11].
For `O=c1[nH]cnc2c1sc1nc3ccccc3n12` the same measures were above 100 µM, above 100 µM and above 100 µM.
For `CC(C)(C)n1c(=O)[nH]n(C2NN=Cc3cccc4cccc2c34)c1=O` (stereo not given) the same measures were 45.1 µM, above 100 µM and above 100 µM.
The like results for `O=C(c1ccco1)N(Cc1ccco1)C(=S)Nc1ccccc1` were, in that order, 15.4 µM, 32.2 µM and above 100 µM.
Turning to `COc1ccccc1/C=C(\C#N)C(=O)c1ccccc1`, the TGI in test [1], in test [2], in test [3], in [5], in test [6] and in test [13] was above 100 µM each time. The TGI in test [9], in [11] and in test [12] was above 100 µM each time.
As to `CCCN1CC=C(c2cc(C(=O)OCC)[nH]c2-c2cc(C)no2)C1=O`, the TGI in [1], in test [2] and in [11] was above 100 µM each time.
With `CC(=O)Nc1ccc(N=C2C(c3ccccc3)=C(SC3=C(c4ccccc4)C(=Nc4ccc(NC(C)=O)cc4)c4ccccc43)c3ccccc32)cc1`, the TGI was 28.5 µM in [1], above 100 µM in test [2] and above 100 µM in [11].
Consider `CC1=NNC(=O)C1C1CC(c2c[nH]c3ccccc23)=NNC1=S` (stereo not given), for which the TGI in test [1], in test [2] and in [11] was above 100 µM each time.
As for `c1ccc2c(c1)Nc1ccccc1[P+]21c2ccccc2Nc2ccccc21`, the TGI in [1] was 0.817 µM; in test [2] it was 3.42 µM; in test [11] it was 0.66 µM.
The like results for `Cn1c(N)c(C(N)=O)[nH]c1=S` were, in that order, above 100 µM, above 100 µM and above 100 µM.
The like results for `CC(=O)c1c(SCCN2CCCC2)n(-c2ccccc2)c(=S)n(-c2ccccc2)c1=O` were, in that order, 12.5 µM, 6.76 µM and 54.1 µM.
As to `CCOc1ccc(NC(=O)C2=C(C)NC(C)=C(C(=O)Nc3ccc(OCC)cc3)C2c2ccc(O)c(OC)c2)cc1`, the TGI in [1] was 83.6 µM; in test [2] it was above 100 µM; in test [3], above 100 µM; in test [4], above 100 µM; in test [6], 52 µM; in [13], above 100 µM. Also, the TGI in test [7], in test [8], in test [9], in test [11] and in test [12] was above 100 µM each time.
For the compound `Nc1nc(NCCO)c(N=O)c(=O)[nH]1`, the TGI in [1], in test [2], in test [3], in [4], in test [5] and in [6] was above 100 µM in each case. For the same compound, the TGI in test [13], in test [8], in [9], in test [10], in [11] and in test [12] was above 100 µM throughout.
For the compound `COC(=O)C1CCOC(C)N1C(=O)OC(C)(C)C` (stereo not given), the TGI in test [1], in test [2] and in test [11] was above 100 µM throughout.
`O=[N+]([O-])c1ccc(-c2nc3ccc([N+](=O)[O-])cc3[nH]2)cc1`: the TGI in [1], in test [2] and in test [11] was above 100 µM throughout.
In the case of `COc1ccc(N(CN2C(=O)CCC2C(=O)O)C(C)=O)cc1` (stereo not given), the TGI in [1], in test [2] and in [11] was above 100 µM in each case.
As for `O=C(CC(=O)Nc1cccc(Cl)c1)NNCC(=O)Nc1nnc(-c2ccccc2)s1`, the TGI is above 100 µM in test [1]; above 100 µM in test [2]; above 100 µM in test [3]; above 100 µM in test [4]; above 100 µM in test [5]; 76.3 µM in test [6]. Besides, the TGI in test [13] was above 100 µM; in test [7], above 100 µM; in [8], above 100 µM; in [9] it was above 100 µM; in test [10], 58.6 µM; in [11], 75.7 µM. In [12], this compound showed a TGI above 100 µM.
As for `CC1=NOC2(C1)C(=O)Nc1ccccc12` (stereo not given), the TGI in [1], in test [2] and in [11] was above 100 µM each time.
Consider `COc1cc(-c2cc(=O)c3c(OC)c(OC)c(OC)cc3o2)c(OC)c(OC)c1OC`, for which the TGI in [1], in test [2] and in [11] was above 75 µM each time.
On to `O=C1NC(=O)C(CC(C(=O)C(=O)Nc2ccccc2Cl)C(=O)c2ccc3ccccc3c2)C(=O)N1` (stereo not given), for which the TGI in test [1], in test [2] and in [11] was above 100 µM throughout.
